Columns and labels:
[1] = tested on: SU8686 (Pancreatic Carcinoma); experiment: combination Emax (second highest fraction inhibited in the dose matrix, 72 h); higher = more inhibition; extreme values may be limits of the assay
Procedure, shortened: (§1)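 After 24 hours at 37°C and 5% CO2 in 1536-well plates, cells in DMEM/F12 or RPMI plus 10% FBS received two-drug dose matrices for 72 hours. Viability came from CellTiter-Glo 2.0 luminescence and was scaled as inhibition, anchored at 0 by vehicle wells and at 1 by blank wells. Combination Emax is taken as the second-highest inhibition in the matrix, and Bliss excess as the observed combination effect less EA + EB − EA·EB, with EA and EB the single-agent effects.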

[2] = tested on: HGC-27 (Gastric Carcinoma); experiment: as above
Procedure, shortened: as §1

[3] = tested on: C-4-I (Cervical Carcinoma); experiment: as above
Procedure, shortened: as §1

[4] = tested on: OE19 (Esophageal Adenocarcinoma); experiment: as above
Procedure, shortened: as §1

[5] = tested on: NCI-H1915 (Non-Small Cell Lung Carcinoma); experiment: as above
Procedure, shortened: as §1

[6] = tested on: JVM-3 (B-Cell Non-Hodgkin's Lymphoma); experiment: as above
Procedure, shortened: as §1

[7] = tested on: NUGC-3 (Gastric Carcinoma); experiment: as above
Procedure, shortened: as §1

[8] = tested on: SU8686 (Pancreatic Carcinoma); experiment: Bliss excess, mean over the matrix (fraction); higher = more synergy
Procedure, shortened: as §1

[9] = tested on: NEC8 (Other Solid Carcinomas); experiment: as above
Procedure, shortened: as §1

[10] = tested on: OVCAR-4 (Ovarian Carcinoma); experiment: as above
Procedure, shortened: as §1

[11] = tested on: HGC-27 (Gastric Carcinoma); experiment: as above
Procedure, shortened: as §1

[12] = tested on: TE-1 (Esophageal Squamous Cell Carcinoma); experiment: as above
Procedure, shortened: as §1

[13] = tested on: C-4-I (Cervical Carcinoma); experiment: as above
Procedure, shortened: as §1

[14] = tested on: HOP-62 (Lung Adenocarcinoma); experiment: as above
Procedure, shortened: as §1

[15] = tested on: OE19 (Esophageal Adenocarcinoma); experiment: as above
Procedure, shortened: as §1

[16] = tested on: VA-ES-BJ (Other Solid Carcinomas); experiment: as above
Procedure, shortened: as §1

[17] = tested on: NCI-H1915 (Non-Small Cell Lung Carcinoma); experiment: as above
Procedure, shortened: as §1

[18] = tested on: JVM-3 (B-Cell Non-Hodgkin's Lymphoma); experiment: as above
Procedure, shortened: as §1

[19] = tested on: HSC-4 (Oral Cavity Carcinoma); experiment: as above
Procedure, shortened: as §1

[20] = tested on: SCC-15 (Oral Cavity Carcinoma); experiment: as above
Procedure, shortened: as §1
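For Bliss excess, mean over the matrix in this document: after 72 h of two-drug dosing.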

Row | SMILES | combination Emax [1] | combination Emax [2] | combination Emax [3] | combination Emax [4] | combination Emax [5] | combination Emax [6] | combination Emax [7] | Bliss excess [8] | Bliss excess [9] | Bliss excess [10] | Bliss excess [11] | Bliss excess [12] | Bliss excess [13] | Bliss excess [14] | Bliss excess [15] | Bliss excess [16] | Bliss excess [17] | Bliss excess [18] | Bliss excess [19] | Bliss excess [20]
1 | CN(CCO)CC[C@H](CSc1ccccc1)Nc1ccc(S(=O)(=O)NC(=O)c2ccc(N3CCC([C@@H](O)c4ccccc4-c4ccc(Cl)cc4)CC3)cc2)cc1S(=O)(=O)C(F)(F)F [AZD4320] + Cc1cc2ncnn2cc1Nc1ncc2c(n1)n(C1CCOCC1)c(=O)n2C [AZD7648] (first compound max 1 µM, 7x7, partner max 10 µM) | 0.0978 | 0.473 | 0.132 | 0.415 | 0.223 | 0.916 | 0.347 | -0.0355 | 0.0104 | -0.0412 | -0.0473 | -0.0443 | -0.0082 | -0.0479 | -0.0219 | -0.0364 | -0.0254 | -0.0214 | -0.0592 | -0.0152
2 | C[C@@H](c1ccc2nccn2c1)n1nnc2ncc(-c3cnn(C)c3)nc21 [Savolitinib] + Cc1c2c(nn1C)CSCc1cc(n(C)n1)CSc1cc(c3ccccc3c1)OCCCc1c(C(=O)O)n(C)c3c-2c(Cl)ccc13 [AZD5991] (first compound max 1 µM, 7x7, partner max 1 µM) | 0.137 | 0.238 | 0.273 | 0.235 | 0.0983 |  | 0.23 | -0.0127 | -0.0093 | -0.0713 | 0.0154 | -0.0748 | -0.111 | -0.0754 | -0.093 | -0.0299 | -0.0587 |  | -0.0864 | -0.0222
3 | CN(CCO)CC[C@H](CSc1ccccc1)Nc1ccc(S(=O)(=O)NC(=O)c2ccc(N3CCC([C@@H](O)c4ccccc4-c4ccc(Cl)cc4)CC3)cc2)cc1S(=O)(=O)C(F)(F)F [AZD4320] + C[C@@H](Nc1cc(F)cc(F)c1)c1cc(C(=O)N(C)C)cc2c(=O)cc(N3CCOCC3)oc12 [AZD8186] (first compound max 1 µM, 7x7, partner max 3 µM) | 0.216 | 0.64 | 0.611 | 0.489 | 0.455 | 1 | 0.777 | -0.0031 | 0.0171 | 0.0154 | -0.0272 | -0.0549 | 0.0681 | -0.0226 | 0.0201 | 0.0393 | 0.0202 | 0.0456 | -0.12 | -0.0179
4 | Cc1cc2ncnn2cc1Nc1ncc2c(n1)n(C1CCOCC1)c(=O)n2C [AZD7648] + CN(C)CCCOc1ccc(-c2ccc3ncc4c(c3c2)n(C2CCOCC2)c(=O)n4C)cn1 [AZD0156] (first compound max 10 µM, 7x7, partner max 1 µM) | 0.143 | 0.611 | 0.211 | 0.363 | 0.294 | 0.638 | 0.296 | -0.0144 | -0.0007 | -0.0126 | 0.0101 | -0.051 | 0.0099 | -0.0173 | 0.0583 | 0.0248 | -0.0208 | -0.0297 | -0.0154 | 0.0215
5 | CN(CCO)CC[C@H](CSc1ccccc1)Nc1ccc(S(=O)(=O)NC(=O)c2ccc(N3CCC([C@@H](O)c4ccccc4-c4ccc(Cl)cc4)CC3)cc2)cc1S(=O)(=O)C(F)(F)F [AZD4320] + Cn1cnc2c(F)c(Nc3ccc(Br)cc3Cl)c(C(=O)NOCCO)cc21 [Selumetinib] (first compound max 1 µM, 7x7, partner max 3 µM) | 0.228 | 0.381 | 0.52 | 0.314 | 0.583 | 1 | 0.762 | -0.0002 | 0.021 | 0.0108 | 0.0579 | 0.0819 | 0.135 | -0.0508 | -0.0202 |  | 0.0324 | -0.0225 | 0.0732 | 0.042
6 | Cc1cc2ncnn2cc1Nc1ncc2c(n1)n(C1CCOCC1)c(=O)n2C [AZD7648] + C=CCn1c(=O)c2cnc(Nc3ccc(N4CCN(C)CC4)cc3)nc2n1-c1cccc(C(C)(C)O)n1 [AZD1775] (first compound max 10 µM, partner max 1 µM) | 0.224 | 0.771 | 0.899 | 0.465 | 0.553 | 0.904 | 0.587 | -0.0542 | 0.0004 | -0.0108 | -0.012 | -0.0045 | -0.015 | -0.0093 | -0.0099 | -0.008 | -0.0738 | -0.0686 | -0.0082 | 0.0938
7 | CN(CCO)CC[C@H](CSc1ccccc1)Nc1ccc(S(=O)(=O)NC(=O)c2ccc(N3CCC([C@@H](O)c4ccccc4-c4ccc(Cl)cc4)CC3)cc2)cc1S(=O)(=O)C(F)(F)F [AZD4320] + C=CCn1c(=O)c2cnc(Nc3ccc(N4CCN(C)CC4)cc3)nc2n1-c1cccc(C(C)(C)O)n1 [AZD1775] (first compound max 1 µM, partner max 1 µM) | 0.238 | 0.543 | 0.946 | 0.33 | 0.853 | 1 | 0.764 | -0.0598 | 0.0272 | -0.0068 | -0.018 | -0.0034 | 0.0656 | -0.0356 | 0.0072 | 0.006 | 0.0125 | -0.101 | 0.023 | 0.0336
8 | Cc1cc2ncnn2cc1Nc1ncc2c(n1)n(C1CCOCC1)c(=O)n2C [AZD7648] + C[C@@H]1COCCN1C2=NC(=NC(=C2)C3(CC3)[S@](=N)(=O)C)C4=C5C=CNC5=NC=C4 [AZD6738] (first compound max 10 µM, 7x7, partner max 10 µM) | 0.232 | 0.849 | 0.929 | 0.813 | 0.364 | 0.809 | 0.665 | -0.0289 | 0.0119 | -0.0053 | -0.0265 | -0.0086 | 0.0255 | -0.0009 | -0.0607 | -0.0099 | -0.0216 | 0.0108 | -0.0165 | 0.0975
9 | Cc1cc2ncnn2cc1Nc1ncc2c(n1)n(C1CCOCC1)c(=O)n2C [AZD7648] + CCN(CCO)CCCOc1ccc2c(Nc3cc(CC(=O)Nc4cccc(F)c4)[nH]n3)ncnc2c1 [AZD2811] (first compound max 10 µM, 7x7, partner max 1 µM) | 0.139 | 0.856 | 0.298 | 0.774 | 0.252 | 0.592 | 0.418 | -0.0135 | -0.0082 | -0.0035 | -0.0685 | -0.0535 | 0.048 | 0.0126 | 0.0151 | -0.0034 | -0.0444 | 0.0791 | 0.0036 | 0.071
10 | CN(CCO)CC[C@H](CSc1ccccc1)Nc1ccc(S(=O)(=O)NC(=O)c2ccc(N3CCC([C@@H](O)c4ccccc4-c4ccc(Cl)cc4)CC3)cc2)cc1S(=O)(=O)C(F)(F)F [AZD4320] + CCN(CCO)CCCOc1ccc2c(Nc3cc(CC(=O)Nc4cccc(F)c4)[nH]n3)ncnc2c1 [AZD2811] (first compound max 1 µM, 7x7, partner max 1 µM) | 0.155 | 0.96 | 0.657 | 0.854 | 0.31 | 1 | 0.498 | -0.03 | -0.0138 | 0.045 | 0.032 | 0.0794 | 0.0557 | -0.0197 | -0.0349 | -0.0259 | 0.0393 | 0.165 | -0.0335 | 0.0101
11 | Cc1nc(Nc2ncc(C(=O)Nc3c(C)cccc3Cl)s2)cc(N2CCN(CCO)CC2)n1 [Dasatinib] + CC(=O)Nc1cccc(-n2c(=O)n(C3CC3)c(=O)c3c(Nc4ccc(I)cc4F)n(C)c(=O)c(C)c32)c1 [Trametinib] (first compound max 2 µM, 7x7, partner max 1 µM) | 0.388 | 0.726 | 0.731 | 0.797 | 1 |  | 0.721 | -0.0328 | -0.0277 | 0.0286 | -0.0355 | -0.0067 | 0.0328 | -0.0824 | -0.063 | -0.033 | 0.0564 |  | -0.0681 | -0.0213
12 | COc1cc2ncnc(Nc3ccc(F)c(Cl)c3)c2cc1OCCCN1CCOCC1 [Gefitinib] + CC(C)n1c(=O)n(C)c2cnc3cc(F)c(-c4ccc(OCCCN5CCCCC5)nc4)cc3c21 [AZD1390] (first compound max 10 µM, 7x7, partner max 0.3 µM) | 0.082 | 0.238 | 0.387 | 0.943 | 0.213 |  | 0.486 | -0.0378 | -0.0278 | -0.0561 | -0.0261 | -0.0471 | -0.042 | -0.0751 | -0.0181 | -0.0513 | -0.0433 |  | -0.0847 | -0.0571
13 | C[C@@H](c1ccc2nccn2c1)n1nnc2ncc(-c3cnn(C)c3)nc21 [Savolitinib] + CC1(C)CCC(CN2CCN(c3ccc(C(=O)NS(=O)(=O)c4ccc(NCC5CCOCC5)c([N+](=O)[O-])c4)c(Oc4cnc5[nH]ccc5c4)c3)CC2)=C(c2ccc(Cl)cc2)C1 [Venetoclax] (first compound max 1 µM, 7x7, partner max 1 µM) | 0.0716 | 0.147 | 0.0949 | 0.166 | 0.145 |  | 0.181 | -0.0617 | -0.0236 | -0.0791 | -0.0158 | -0.0546 | -0.0585 | -0.0939 | -0.0377 | -0.0433 | -0.0456 |  | -0.0776 | -0.0613
